According to PubChem BioAssay (NCI):
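All cell lines were grown in 96-well plates and treated with compound for 48 hours. GI50: concentration for 50% inhibition of growth. TGI denotes the concentration required for complete inhibition of growth.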

Legend:
Assay in all cases: NCI anticancer screen, dose series, 48 h; in the data active = GI50 below about 0.43 µM; inactive = the rest
[1] = system: SNB-75 CNS
[2] = system: T-47D breast
[3] = system: OVCAR-4 ovarian
[4] = system: HCC-2998 colon
[5] = system: A549 NSCLC
[6] = system: LOX IMVI melanoma
[7] = system: EKVX NSCLC
[8] = system: SK-OV-3 ovarian
[9] = system: U251 CNS
[10] = system: SN12C renal
[11] = system: UACC-257 melanoma
[12] = system: UO-31 renal
[13] = system: NCI-H460 lung
[14] = system: HT29 colon
[15] = system: HS 578T breast
[16] = system: NCI/ADR-RES ovarian
[17] = system: CAKI-1 renal
[18] = system: PC-3 prostate
[19] = system: A498 renal
[20] = system: HOP-62 NSCLC
[21] = system: SF-539 CNS
[22] = system: SK-MEL-2 melanoma
[23] = system: 786-0 renal
[24] = system: RXF 393 renal
[25] = system: HOP-92 NSCLC
[26] = system: TK-10 renal
[27] = system: MALME-3M melanoma
[28] = system: NCI-H522 lung
[29] = system: KM12 colon
[30] = system: HCT-15 colon
[31] = system: NCI-H23 lung
[32] = system: OVCAR-8 ovarian
[33] = system: MDA-MB-435
[34] = system: SNB-19 CNS
[35] = system: OVCAR-3 ovarian
[36] = system: OVCAR-5 ovarian
[37] = system: HCT-116 colon
[38] = system: NCI-H226 lung
[39] = system: SF-295 CNS
[40] = system: DU-145 prostate
[41] = system: CCRF-CEM leukemia
[42] = system: HL-60(TB) leukemia
[43] = system: SK-MEL-28 melanoma
[44] = system: SR leukemia
[45] = system: MOLT-4 leukemia
[46] = system: MDA-MB-231 breast
[47] = system: BT-549 breast
[48] = system: UACC-62 melanoma
[49] = system: RPMI-8226 leukemia
[50] = system: COLO 205 colon
[51] = system: K-562 leukemia
[52] = system: SW-620 colon
[53] = system: M14 melanoma
[54] = system: IGROV1 ovarian
[55] = system: ACHN renal
[56] = system: SF-268 CNS
[57] = system: MCF7 breast
[58] = system: SK-MEL-5 melanoma

COc1cccc(/C=N/Nc2ncnc3c2cnn3-c2cccc(OC)c2)c1
inactive: GI50 [1] > 25 µM | GI50 [2] > 25 µM | GI50 [3] > 25 µM | GI50 [4] > 25 µM | GI50 [5] > 25 µM | GI50 [6] > 25 µM | GI50 [7] > 25 µM | GI50 [8] > 25 µM | GI50 [9] > 25 µM | GI50 [10] > 25 µM | GI50 [11] > 25 µM | GI50 [12] > 25 µM | GI50 [13] > 25 µM | GI50 [14] > 25 µM | GI50 [15] > 10.6 µM | GI50 [16] > 25 µM | GI50 [17] > 25 µM | GI50 [18] > 25 µM | GI50 [19] > 25 µM | GI50 [20] > 25 µM | GI50 [21] > 25 µM | GI50 [22] > 25 µM | GI50 [23] > 25 µM | GI50 [24] > 25 µM | GI50 [25] > 25 µM | GI50 [26] > 25 µM | GI50 [27] > 25 µM | GI50 [28] > 25 µM | GI50 [29] > 25 µM | GI50 [30] > 25 µM | GI50 [31] > 25 µM | GI50 [32] > 25 µM | GI50 [33] > 25 µM | GI50 [34] > 25 µM | GI50 [35] > 25 µM | GI50 [36] > 25 µM | GI50 [37] > 25 µM | GI50 [38] > 25 µM | GI50 [39] > 25 µM | GI50 [40] > 25 µM | GI50 [41] > 25 µM | GI50 [42] > 25 µM | GI50 [43] > 25 µM | GI50 [44] > 25 µM | GI50 [45] > 25 µM | GI50 [46] > 25 µM | GI50 [47] > 25 µM | GI50 [48] > 25 µM | GI50 [49] > 25 µM | GI50 [50] > 25 µM | GI50 [51] > 25 µM | GI50 [52] > 25 µM | GI50 [53] > 25 µM | GI50 [54] > 25 µM | GI50 [55] > 25 µM | GI50 [56] > 25 µM | GI50 [57] > 25 µM | GI50 [58] > 25 µM
> 25 µM: TGI [1] | TGI [2] | TGI [3] | TGI [4] | TGI [5] | TGI [6] | TGI [7] | TGI [8] | TGI [9] | TGI [10] | TGI [11] | TGI [12] | TGI [13] | TGI [14] | TGI [15] | TGI [16] | TGI [17] | TGI [18] | TGI [19] | TGI [20] | TGI [21] | TGI [22] | TGI [23] | TGI [24] | TGI [25] | TGI [26] | TGI [27] | TGI [28] | TGI [29] | TGI [30] | TGI [31] | TGI [32] | TGI [33] | TGI [34] | TGI [35] | TGI [36] | TGI [37] | TGI [38] | TGI [39] | TGI [40] | TGI [41] | TGI [42] | TGI [43] | TGI [44] | TGI [45] | TGI [46] | TGI [47] | TGI [48] | TGI [49] | TGI [50] | TGI [51] | TGI [52] | TGI [53] | TGI [54] | TGI [55] | TGI [56] | TGI [57] | TGI [58]

O=C1c2ccccc2C(=O)c2c(N=Nc3[nH]c(=S)[nH]c3O)cccc21
> 61.6 µM: TGI [20]
2.96 µM: TGI [1]
43.3 µM: TGI [47]
1.13 µM: TGI [19]
> 56.9 µM: TGI [38]
> 21.4 µM: TGI [12]
inactive: GI50 [2] 1.64 µM | GI50 [3] 2.12 µM | GI50 [4] 3.08 µM | GI50 [5] 1.75 µM | GI50 [6] 0.734 µM | GI50 [7] 4.71 µM | GI50 [8] 3.86 µM | GI50 [9] 0.676 µM | GI50 [10] 1.49 µM | GI50 [11] > 100 µM | GI50 [12] 0.792 µM | GI50 [13] 0.849 µM | GI50 [14] 2.53 µM | GI50 [15] 0.462 µM | GI50 [16] 2.45 µM | GI50 [17] 0.548 µM | GI50 [18] 0.816 µM | GI50 [20] 1.84 µM | GI50 [22] 1.7 µM | GI50 [23] 1.11 µM | GI50 [24] 0.508 µM | GI50 [25] 0.877 µM | GI50 [26] 5.23 µM | GI50 [27] 0.769 µM | GI50 [29] 0.454 µM | GI50 [30] 0.689 µM | GI50 [31] 1.67 µM | GI50 [32] 2.47 µM | GI50 [34] 0.997 µM | GI50 [36] 4.17 µM | GI50 [37] 0.462 µM | GI50 [38] 4.33 µM | GI50 [39] 0.983 µM | GI50 [40] 0.984 µM | GI50 [42] 1.13 µM | GI50 [43] 5.2 µM | GI50 [44] 0.472 µM | GI50 [45] 1.1 µM | GI50 [46] 1.3 µM | GI50 [47] 1.12 µM | GI50 [48] 0.604 µM | GI50 [49] 1.09 µM | GI50 [50] 2.41 µM | GI50 [51] 0.434 µM | GI50 [52] 0.496 µM | GI50 [53] 0.579 µM | GI50 [54] 0.968 µM | GI50 [55] 1.9 µM | GI50 [56] 1.56 µM | GI50 [58] 0.743 µM
> 42.4 µM: TGI [40]
> 28.2 µM: TGI [16]
> 75 µM: TGI [17]
98.9 µM: TGI [56]
> 74.8 µM: TGI [34]
19.8 µM: TGI [39]
56.7 µM: TGI [9]
3.21 µM: TGI [24]
> 34.5 µM: TGI [28]
> 100 µM: TGI [2] | TGI [3] | TGI [4] | TGI [5] | TGI [6] | TGI [7] | TGI [8] | TGI [10] | TGI [11] | TGI [13] | TGI [14] | TGI [18] | TGI [22] | TGI [23] | TGI [26] | TGI [27] | TGI [29] | TGI [30] | TGI [32] | TGI [36] | TGI [37] | TGI [41] | TGI [42] | TGI [43] | TGI [44] | TGI [45] | TGI [48] | TGI [49] | TGI [50] | TGI [51] | TGI [52] | TGI [53] | TGI [54] | TGI [55] | TGI [57] | TGI [58]
38.6 µM: TGI [31]
2.74 µM: TGI [21]
47.9 µM: TGI [15]
> 57.2 µM: TGI [25]
18.3 µM: TGI [46]
active: GI50 [1] 0.346 µM | GI50 [19] 0.104 µM | GI50 [21] 0.424 µM | GI50 [28] 0.425 µM | GI50 [33] 0.224 µM | GI50 [35] 0.368 µM | GI50 [41] 0.384 µM | GI50 [57] 0.357 µM
0.63 µM: TGI [33]
